The text below walks through data of publication doi:10.1101/2024.09.25.614871v2, “CLYBL averts methylmalonyl-CoA mutase inhibition and loss of vitamin B12 by repairing malyl-CoA” (biorxiv, 2024).

By Km is commonly meant the substrate concentration at which the rate is half of its maximum.

One experiment addresses T1, citrate synthase (CS) (Sus scrofa, UniProt P00889).
T1 construct: commercial native enzyme from porcine heart
T1 sequence (P00889 28-464): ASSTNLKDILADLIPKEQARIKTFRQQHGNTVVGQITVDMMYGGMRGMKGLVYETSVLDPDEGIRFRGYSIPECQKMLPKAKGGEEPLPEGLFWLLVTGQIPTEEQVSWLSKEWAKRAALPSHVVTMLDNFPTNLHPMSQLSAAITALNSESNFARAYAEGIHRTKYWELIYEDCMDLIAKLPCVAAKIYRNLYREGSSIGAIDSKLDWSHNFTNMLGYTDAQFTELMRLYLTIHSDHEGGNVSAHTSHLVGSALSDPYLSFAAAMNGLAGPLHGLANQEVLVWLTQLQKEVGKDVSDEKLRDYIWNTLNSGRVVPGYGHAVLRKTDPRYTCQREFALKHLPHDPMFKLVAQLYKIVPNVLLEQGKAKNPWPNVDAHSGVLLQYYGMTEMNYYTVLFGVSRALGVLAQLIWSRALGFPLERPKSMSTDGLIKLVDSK
The experiment is described as follows: Ellman's reagent at […] nm, inhibition of malyl-CoA thioesterase. Format: biochemical. The settings on record: read-out: % inhibition at highest concentration (100 μM). (DTNB colorimetry detects thiols as they appear.)

Experiment [1] has as its target T2, methylmalonyl-CoA mutase (MCM) (Homo sapiens, UniProt P22033).
T2 construct: gene MMUT
T2 sequence (P22033 34-750): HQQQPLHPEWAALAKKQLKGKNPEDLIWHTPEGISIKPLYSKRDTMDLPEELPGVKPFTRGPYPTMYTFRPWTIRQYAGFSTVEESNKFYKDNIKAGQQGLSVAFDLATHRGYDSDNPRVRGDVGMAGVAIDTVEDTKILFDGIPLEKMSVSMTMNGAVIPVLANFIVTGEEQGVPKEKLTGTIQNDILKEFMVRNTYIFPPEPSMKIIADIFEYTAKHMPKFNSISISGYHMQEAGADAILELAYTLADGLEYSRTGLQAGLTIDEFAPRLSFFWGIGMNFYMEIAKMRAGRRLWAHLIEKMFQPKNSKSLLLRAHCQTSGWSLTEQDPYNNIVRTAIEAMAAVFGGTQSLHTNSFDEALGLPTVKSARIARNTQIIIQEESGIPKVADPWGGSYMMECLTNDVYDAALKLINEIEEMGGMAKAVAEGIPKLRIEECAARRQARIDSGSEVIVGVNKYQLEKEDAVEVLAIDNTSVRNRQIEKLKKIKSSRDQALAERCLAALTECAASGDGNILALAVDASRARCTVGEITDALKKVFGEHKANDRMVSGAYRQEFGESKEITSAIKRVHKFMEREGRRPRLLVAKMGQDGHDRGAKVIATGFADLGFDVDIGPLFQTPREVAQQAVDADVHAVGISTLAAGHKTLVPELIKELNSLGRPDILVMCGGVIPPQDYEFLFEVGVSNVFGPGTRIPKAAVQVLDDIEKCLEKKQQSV
The experiment is described as follows: absorbance spectrum of loaded enzyme. Format: binding. The settings on record: 12.5 μM MCM homodimer, 5 μM adenosylcobalamin, pH 7.5, 30 °C.

The target of experiment [2] is T2, methylmalonyl-CoA mutase (MCM). The experiment is described as follows: succinyl-CoA formation by LC-HRMS/MS. The settings on record: 10 min preincubation, 0.24 μM adenosylcobalamin, 65 μM methylmalonyl-CoA, pH 7.5, 30 °C; coenzyme inactivation to cob(II)alamin; itaconyl-CoA 27% pure, concentrations corrected. It is filed as biochemical.
For another experiment, the target named is T3, CLYBL (Homo sapiens, UniProt Q8N0X4, I241V).
T3 construct: full-length ORF (340 aa precursor), natural variant Ile241Val, C-terminal Myc-DKK (FLAG) tag, expressed in HEK293FT, anti-FLAG purified
T3 sequence (Q8N0X4 23-340 I241V): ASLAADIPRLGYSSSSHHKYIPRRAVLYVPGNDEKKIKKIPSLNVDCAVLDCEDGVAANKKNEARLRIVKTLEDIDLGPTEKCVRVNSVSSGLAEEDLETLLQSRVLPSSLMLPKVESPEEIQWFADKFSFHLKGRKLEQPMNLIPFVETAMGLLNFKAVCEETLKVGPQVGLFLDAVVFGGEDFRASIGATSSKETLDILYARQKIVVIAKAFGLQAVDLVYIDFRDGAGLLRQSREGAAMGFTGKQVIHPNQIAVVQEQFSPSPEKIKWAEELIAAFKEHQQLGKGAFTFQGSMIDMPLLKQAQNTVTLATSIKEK
The experiment is described as follows: Ellman's reagent at […] nm (thioesterase). It is filed as biochemical. Particulars: pH 7.5, 37 °C, 2 mM MgCl2.

The target of experiment [3] is T2, methylmalonyl-CoA mutase (MCM). The experiment is described as follows: succinyl-CoA formation by LC-HRMS/MS. Format: biochemical. The settings on record: read-out: % residual activity at 50 μM.
For experiment [4], the target named is T4, SUCL (GDP-forming), SUCLG1:SUCLG2 complex (Homo sapiens, UniProt P53597+Q96I99).
T4 construct: SUCLG1 aa 28-333 with N-terminal His6, SUCLG2 aa 38-420 with C-terminal His6, co-expressed in E. coli, tags kept
The experiment is described as follows: PK/LDH-coupled NADH consumption. It is filed as biochemical. The settings on record: 0.6 mM GTP, 0.1 mM CoA, 7 mM MgCl2, pH 7.5, 30 °C. An excerpt: PK/LDH-coupled NADH consumption on SUCL (GDP-forming), SUCLG1:SUCLG2 complex

In experiment [5] the target is T5, SUCL (ADP-forming), SUCLG1:SUCLA2 complex (Homo sapiens, UniProt P53597+Q9P2R7).
T5 construct: SUCLG1 aa 28-333 with N-terminal His6, SUCLA2 aa 53-463 with C-terminal His6, co-expressed in E. coli, tags kept
The experiment is described as follows: PK/LDH-coupled NADH consumption. Format: biochemical. The settings on record: 0.6 mM ATP, 0.1 mM CoA, 7 mM MgCl2, pH 7.5, 30 °C. An excerpt: PK/LDH-coupled NADH consumption on SUCL (ADP-forming), SUCLG1:SUCLA2 complex

T4 sequence (P53597 28-333): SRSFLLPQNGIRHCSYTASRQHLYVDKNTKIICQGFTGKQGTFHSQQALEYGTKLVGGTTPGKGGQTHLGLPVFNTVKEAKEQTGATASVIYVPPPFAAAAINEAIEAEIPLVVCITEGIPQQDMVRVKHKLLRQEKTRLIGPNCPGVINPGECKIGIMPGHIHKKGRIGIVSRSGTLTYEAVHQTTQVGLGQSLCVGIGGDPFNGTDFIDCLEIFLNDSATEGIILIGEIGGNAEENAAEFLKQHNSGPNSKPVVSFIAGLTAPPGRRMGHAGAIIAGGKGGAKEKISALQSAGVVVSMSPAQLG
T4 sequence (Q96I99 38-420): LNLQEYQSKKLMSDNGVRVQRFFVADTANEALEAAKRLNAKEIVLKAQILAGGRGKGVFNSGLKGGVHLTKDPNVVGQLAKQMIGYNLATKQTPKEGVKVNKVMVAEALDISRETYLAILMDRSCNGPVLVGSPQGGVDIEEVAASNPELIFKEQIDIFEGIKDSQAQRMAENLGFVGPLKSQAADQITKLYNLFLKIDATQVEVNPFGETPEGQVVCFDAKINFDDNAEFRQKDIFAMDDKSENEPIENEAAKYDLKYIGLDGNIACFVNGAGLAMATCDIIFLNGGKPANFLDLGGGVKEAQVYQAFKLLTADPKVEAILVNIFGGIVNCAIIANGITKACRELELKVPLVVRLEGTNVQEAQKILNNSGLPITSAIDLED
T5 sequence (P53597 28-333): as the sequence (P53597 28-333) above
T5 sequence (Q9P2R7 53-463): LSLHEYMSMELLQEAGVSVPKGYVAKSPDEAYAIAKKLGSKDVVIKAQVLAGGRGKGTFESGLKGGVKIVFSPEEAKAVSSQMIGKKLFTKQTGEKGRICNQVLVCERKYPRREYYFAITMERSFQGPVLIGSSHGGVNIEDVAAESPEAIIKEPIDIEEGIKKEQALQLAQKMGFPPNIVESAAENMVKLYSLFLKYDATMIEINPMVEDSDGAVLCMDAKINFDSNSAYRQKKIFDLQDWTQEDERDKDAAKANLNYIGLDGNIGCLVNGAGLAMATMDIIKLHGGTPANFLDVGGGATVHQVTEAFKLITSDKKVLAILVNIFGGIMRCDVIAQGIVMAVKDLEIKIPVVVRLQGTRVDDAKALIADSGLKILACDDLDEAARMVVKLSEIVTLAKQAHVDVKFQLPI

As to `CC(=O)SCCNC(=O)CCNC(=O)[C@H](O)C(C)(C)COP(=O)(O)OP(=O)(O)OC[C@H]1O[C@@H](n2cnc3c(N)ncnc32)[C@H](O)[C@@H]1OP(=O)(O)O` [ACoA, acetyl-CoA], the inhibition at 100 µM at citrate synthase (CS) was about 30%.

As to `C/C1=C2/[N-][C@H]([C@H](CC(N)=O)[C@@]2(C)CCC(=O)NC[C@@H](C)OP(=O)([O-])O[C@H]2C(O)[C@@H](n3cnc4cc(C)c(C)cc43)O[C@@H]2CO)[C@]2(C)N=C(/C(C)=C3N=C(/C=C4N=C1[C@@H](CCC(N)=O)C\4(C)C)[C@@H](CCC(N)=O)[C@]\3(C)CC(N)=O)[C@@H](CCC(N)=O)[C@]2(C)CC(N)=O.[CH2-][C@H]1O[C@@H](n2cnc3c(N)ncnc32)[C@H](O)[C@@H]1O.[Co+3]` (stereo partly shown) [AdoCbl, adenosylcobalamin], in experiment [1], the “absorbance spectrum of loaded enzyme” value is “conversion of the MCM-bound adenosylcobalamin into cob(II)alamin”.

As to `C=C(CC(=O)SCCNC(=O)CCNC(=O)[C@H](O)C(C)(C)COP(=O)(O)OP(=O)(O)OC[C@H]1O[C@@H](n2cnc3c(N)ncnc32)[C@H](O)[C@@H]1OP(=O)(O)O)C(=O)O` [itaconyl-CoA], the relative activity result in experiment [2] is on record as “Both acyl-CoAs induced a dose-dependent inhibition of MCM (Fig. 5a)”.

As for `CC(C)(COP(=O)(O)OP(=O)(O)OC[C@H]1O[C@@H](n2cnc3c(N)ncnc32)[C@H](O)[C@@H]1OP(=O)(O)O)[C@@H](O)C(=O)NCCC(=O)NCCSC(=O)C[C@H](O)C(=O)O` [malyl-CoA], the KM entry on CLYBL was “CLYBL actively hydrolyzed malyl-CoA into malate and free CoASH”. In experiment [3], the remaining activity at 50 µM was under 10%.

Turning to `O=C(O)CCC(=O)O` [succinate], the Km in experiment [4] was found to be 250 ± 30 µM; in experiment [5], 6.3 ± 1.9 mM.
